Experimental data as given in patent US7037939B2, “Compound and derivative of gabapentin” (Industrial Technology Research Institue, priority 2002, dated 2006).
Where a name gives a salt, the structure may show the parent alone.

Test system: Caco-2 cell
Experiment: Caco-2 monolayer cell transmission rate (in vitro intestinal absorption model)
Assay type: in vitro ADME, human
Source text: The common use of the activity selection model for the in vitro intestinal absorption comprises: (1) Carcinoms (Caco-2); (2) Using Chamber; (3) Everted Gut Sac. Basically, there is no difference for those three drug-activity-selection models when they are used for evaluating the activity selection. However, in terms of the cell source from human, a cell line is predominant. Moreover, with the cellular metabolism being similar to human intestines, Caco-2 becomes an excellent tool in the study of intestine absorption. Therefore, in the comparison of the in vitro transmission rate between gabapentin and gabapentin derivatives, the Caco-2 system is still the favorable model.
The research for studying gabapentin and the derivatives thereof in the present invention includes: Caco-2 cell activation, Caco-2 monolayer cell cultivation, resistance value measurement, effect of time to gabapentin transmission rate, and comparison of transmission rate between gabapentin and gabapentin derivatives. In constructing the Caco-2 monolayer, the original cell line is the human colon adenocarcinoma cell (Caco-2), and its data sheet is listed as Table 2.
The Caco-2 cell is activated appropriately, and seeded in the transwell at 37° C. in an amount of about 1×10^5. The aliquot is cultivated in 5% CO2 at 37° C. and replaced with a fresh medium every 3 to 4 days, and then the monolayer cell is obtained by the 21 days cultivation. The integrity of the Caco-2 cell is further characterized by tissue section and resistance value measurement.
HPLC Analysis: Intersil ODS-3V 250*4.6 mm column, Solvent: MeOH/H2O=10:90 to 70:30 with 0.1% of NH4OAc, Flow rate=1.0 ml/min, ELSD: Evaporative Light Scattering Detector. Every derivative has been repeated for 3 times in analysis, 4 hr later, the sample is analyzed for the transmission rate and then averaged to account its transmission fold.

[1] = Caco-2 monolayer, 4 h, mean of 3 repeats, HPLC-ELSD
[2] = ratio of Caco-2 transmission rate to GBP.HCl, 4 h

Row | Structure (SMILES) | Caco-2 Cell Mean Total Transmission rate 4 h (%) (human, Caco-2, 4 h) | gbp-prodrug/gbp Transmission Fold (human, Caco-2, 4 h) | Caco-2 Cell Mean Total Transmission rate 4 h (%) [1] | gbp-prodrug/gbp Transmission Fold [2]
1 | CCOC(=O)CC1(CNC(=O)C(N)CCc2ccccc2)CCCCC1 (stereo not shown) [Embodiment 32, {1-[(2-Amino-4-phenyl-butyrylamino)-methyl]-cyclohexyl}-acetic acid ethyl ester] | 1.76% | 1.6 Fold | – | –
2 | CC(C)(C)OC(=O)NC(Cc1ccccc1)C(=O)NCC1(CC(=O)O)CCCCC1 (stereo not shown) [Embodiment 4, {1-[(2-tert-Butoxycarbonylamino-3-phenyl-propionylamino)-methyl]-cyclohexyl}-acetic acid] | – | – | 10% | 9.1 Fold
3 | CCOC(=O)CC1(CNC(=O)C2(N)CCCCC2)CCCCC1 [Embodiment 9, (1-{[(1-Amino-cyclohexanecarbonyl)-amino]-methyl}-cyclohexyl)-acetic acid ethyl ester] | 10.4% | 9.5 Fold | – | –
4 | CCOC(=O)CC1(CNC(=O)C(N)C(C)C)CCCCC1 (stereo not shown) [Embodiment 29, {1-[(2-Amino-3-methyl-butyrylamino)-methyl]-cyclohexyl}-acetic acid ethyl ester] | 8.73% | 7.9 Fold | – | –
5 | CC(C)(C)OC(=O)NC(C(=O)NCC1(CC(=O)O)CCCCC1)c1ccccc1 (stereo not shown) [Embodiment 3, {1-[(2-tert-Butoxycarbonylamino-2-phenyl-acetylamino)-methyl]-cyclohexyl}-acetic acid] | – | – | 3.1% | 2.8 Fold
6 | CCOC(=O)C(Cc1ccccc1)NC(=O)C(C)NC(=O)CC1(CN)CCCCC1 (stereo not shown) [Embodiment 12, 2-{2-[2-(1-Aminonethyl-cyclohexyl)-acetylamino]-propionylamino}-3-phenyl-propionic acid ethyl ester] | – | – | 2.83% | 2.6 Fold
7 | CCOC(=O)CC1(CNC(=O)C(NC(=O)CC2(CN)CCCCC2)c2ccccc2)CCCCC1 (stereo not shown) [Embodiment 21, [1-({2-[2-(1-Aminomethyl-cyclohexyl)-acetylamino]-2-phenyl-acetylamino}-methyl)-cyclohexyl]-acetic acid ethyl ester] | – | – | 8.58% | 7.8 Fold
8 | CCOC(=O)CC1(CNC(=O)C(C)N)CCCCC1 (stereo not shown) [Embodiment 28, {1-[(2-Amino-propionylamino)-methyl]-cyclohexyl}-acetic acid ethyl ester] | 8.11% | 7.4 Fold | – | –
9 | CCOC(=O)CC1(CNC(=O)c2ccccc2)CCCCC1 [Embodiment 8, [1-(Benzoylamino-methyl)-cyclohexyl]-acetic acid ethyl ester] | 21.4% | 19.5 Fold | – | –
10 | CCOC(=O)CC1(CNC(=O)c2cccnc2)CCCCC1 [Embodiment 27, (1-{[(Pyridine-3-carbonyl)-amino]-methyl}-cyclohexyl)-acetic acid ethyl ester] | 9.39% | 8.5 Fold | – | –
11 | NCC1(CC(=O)N2CCCC2C(=O)NCC2(CC(=O)O)CCCCC2)CCCCC1 (stereo not shown) [Embodiment 23, {1-[({1-[2-(1-Aminomethyl-cyclohexyl)-acetyl]-pyrrolidine-2-carbonyl}-amino)-methyl]-cyclohexyl}-acetic acid] | – | – | 10.73% | 9.8 Fold
12 | CCOC(=O)CC1(CNC(=O)C(N)CO)CCCCC1 (stereo not shown) [Embodiment 14, {1-[(2-Amino-3-hydroxy-propionylamino)-methyl]-cyclohexyl}-acetic acid ethyl ester] | 10.95% | 10.0 Fold | – | –
13 | CCOC(=O)CC1(CNC(=O)C2CCC(=O)N2)CCCCC1 (stereo not shown) [Embodiment 25, (1-{[(5-Oxo-pyrrolidine-2-carbonyl)-amino]-methyl}-cyclohexyl)-acetic acid ethyl ester] | 5.68% | 5.2 Fold | – | –
14 | CCOC(=O)CC1(CNC(=O)C2CSCN2C(=O)OC(C)(C)C)CCCCC1 (stereo not shown) [Embodiment 37, 4-[(1-Ethoxycarbonylmethyl-cyclohexylmethyl)-carbamoyl]-thiazolidine-3-carboxylic acid tert-butyl ester] | – | – | 6.13% | 5.6 Fold
15 | CC(C)(C)OC(=O)NC(CO)C(=O)NCC1(CC(=O)O)CCCCC1 (stereo not shown) [Embodiment 10, {1-[(2-tert-Butoxycarbonylamino-3-hydroxy-propionylamino)-methyl]-cyclohexyl}-acetic acid] | 20.7% | 18.8 Fold | – | –
16 | CCOC(=O)CC1(CNC(=O)C(N)CCSC)CCCCC1 (stereo not shown) [Embodiment 26, {1-[(2-Amino-4-methylsulfanyl-butyrylamino)-methyl]-cyclohexyl}-acetic acid ethyl ester] | 9.02% | 8.2 Fold | – | –
17 | CCOC(=O)CC1(CNC(=O)C(N)C(C)CC)CCCCC1 (stereo not shown) [Embodiment 17, {1-[(2-Amino-3-methyl-pentanoylamino)-methyl]-cyclohexyl}-acetic acid ethyl ester] | 9.47% | 8.6 Fold | – | –
18 | CCOC(=O)CC1(CNC(=O)C(N)c2ccc(O)cc2)CCCCC1 (stereo not shown) [Embodiment 35, (1-{[2-Amino-2-(4-hydroxy-phenyl)-acetylamino]-methyl}-cyclohexyl)-acetic acid ethyl ester] | 10.33% | 9.4 Fold | – | –
19 | CC(C)(C)OC(=O)NCC1(CC(=O)NCC2(CC(=O)O)CCCCC2)CCCCC1 [Embodiment 6, [1-({2-[1-(tert-Butoxycarbonylamino-methyl)-cyclohexyl]-acetylamino}-methyl)-cyclohexyl]-acetic acid] | – | – | 27% | 24.5 Fold
20 | CCOC(=O)CC1(CNC(=O)C(CC(C)C)NC(=O)CC2(CN)CCCCC2)CCCCC1 (stereo not shown) [Embodiment 20, [1-({2-[2-(1-Aminomethyl-cyclohexyl)-acetylamino]-4-methyl-pentanoylamino}-methyl)-cyclohexyl]-acetic acid ethyl ester] | – | – | 12.22% | 11.1 Fold
21 | NCC1(CC(=O)O)CCCCC1 [Control 1, Gabapentin HCl, reference compound] | – | – | 1.1% | 1 Fold
22 | CCOC(=O)CC1(CNC(=O)C(N)CCc2ccccc2)CCCCC1 (stereo not shown) [Embodiment 31, {1-[(2-Amino-4-phenyl-butyrylamino)-methyl]-cyclohexyl}-acetic acid ethyl ester] | 12.30% | 11.2 Fold | – | –
23 | CCOC(=O)CC1(CNC(=O)C(N)Cc2ccccc2)CCCCC1 (stereo not shown) [Embodiment 16, {1-[(2-Amino-3-phenyl-propionylamino)-methyl]-cyclohexyl}-acetic acid ethyl ester] | 10.30% | 9.4 Fold | – | –
24 | CCOC(=O)CC1(CNC(=O)C(C)N)CCCCC1 (stereo not shown) [Embodiment 11, {1-[(2-Amino-propionylamino)-methyl]-cyclohexyl}-acetic acid ethyl ester] | 17.6% | 16.0 Fold | – | –
25 | CCOC(=O)CC1(CNC(=O)C2CCC(CN)CC2)CCCCC1 (stereo not shown) [Embodiment 19, (1-{[(4-Aminomethyl-cyclohexanecarbonyl)-amino]-methyl}-cyclohexyl)-acetic acid ethyl ester] | 11.14% | 10.1 Fold | – | –
26 | CCOC(=O)CC1(CNC(=O)c2ccc(O)c(OC)c2)CCCCC1 [Embodiment 24, {1-[(4-Hydroxy-3-methoxy-benzoylamino)-methyl]-cyclohexyl}-acetic acid ethyl ester] | 13.59% | 12.4 Fold | – | –
27 | CCOC(=O)CC1(CNC(=O)C2CSCN2)CCCCC1 (stereo not shown) [Embodiment 34, (1-{[(Thiazolidine-4-carbonyl)-amino]-methyl}-cyclohexyl)-acetic acid ethyl ester] | 4.50% | 4.1 Fold | – | –
28 | CC(C)(C)OC(=O)NC(Cc1ccccc1)C(=O)NCC1(CC(=O)O)CCCCC1 (stereo not shown) [Embodiment 15, {1-[(2-tert-Butoxycarbonylamino-3-phenyl-propionylamino)-methyl]-cyclohexyl}-acetic acid] | – | – | 0.93% | 0.8 Fold
29 | CC(C)C[C@@H](NC(=O)OC(C)(C)C)C(=O)NCC1(CC(=O)O)CCCCC1 [Embodiment 1, {1-[(2R-tert-Butoxycarbonylamino-4-methyl-pentanoylamino)-methyl]-cyclohexyl}-acetic acid] | – | – | 29% | 26.4 Fold
